Experimental data as given in patent US20160271263A1 (Novo Nordisk A/S, priority 2010, published 2016).
Like-named read-outs stand apart in the source and are kept apart here. Numbered stars: 1 amine (or outer) side, 2 acyl side, 3 side chain; on linkers, the order of the positions; unused ones are H or OH. Side chains are listed from the residue outwards. Peptide text beside a SMILES is read from it. * marks the point of attachment. C18 diacid = O=C(O)CCCCCCCCCCCCCCCCC(=O)*; γGlu = O=C(O)[C@H](CCC(=O)[*:2])N[*:1]; AEEA = NCCOCCOCC(=O)O

Key:
[1] = in vivo; conditions: male, Sprague Dawley, rat, plasma
Method: Fifteen male rats (Sprague Dawley, 400 g, Taconic Europe) were divided into three groups of five rats. The rats were dosed at t=0 with either 15 nmol/kg IV, 30 nmol/kg SC, or 100 nmol/kg, respectively. The IV dosing was performed via the tail vein while the rats were shortly under isoflurane anaesthesia. […] Plasma samples were stored on freeze until analysed by LCMS.

[2] = molecular target: DPP-IV (Homo sapiens, UniProt P27487); test: in vitro
Method: 10 μM of peptide was incubated with DPP-IV (2 μg/ml) in duplicate at 37° C. in a HEPES buffer to which 0.005% Tween20 were added. […] The samples were analysed by LC-MS for parent peptide. Data were plotted according to 1st kinetics and the stability was reported as half-lives.

[3] = molecular target: T1, glucagon receptor (Homo sapiens, UniProt P47871); test: cell-based
[4] = molecular target: T1, glucagon receptor; conditions: read-out: Assay (I) Glucagon [EC50]; Table 1; HEK-293 cells, end point data after 6 minutes
[5] = ThT fibrillation assay for physical stability (lag time and recovery); assay type: physicochemical; conditions: Table 2
From the text: This has traditionally been measured by visual inspection of the sample. However, that kind of measurement is very subjective and depending on the observer. Therefore, the application of a small molecule indicator probe is much more advantageous. […] Enzymol.
Here, F is the ThT fluorescence at the time t. […] The two important parameters describing fibril formation are the lag-time calculated by t0−2τ and the apparent rate constant kapp 1/τ.
Few of those intermediates nucleate to form a template onto which further intermediates may assembly and the fibrillation proceeds. The lag-time corresponds to the interval in which the critical mass of nucleus is built up and the apparent rate constant is the rate with which the fibril itself is formed.
Samples were prepared freshly before each assay. […] The pH of the sample was adjusted to the desired value using appropriate amounts of concentrated NaOH and HCl. Thioflavin T was added to the samples from a stock solution in H2O to a final concentration of 1 μM.
The plate was sealed with Scotch Pad (Qiagen).
Each run was initiated by incubating the plate at the assay temperature for 10 min. The plate was measured every 20 minutes for a desired period of time. Between each measurement, the plate was shaken and heated as described.
The supernatant was filtered through a 0.22 μm filter and an aliquot was transferred to a HPLC vial. […]

T1 sequence (P47871 26-477): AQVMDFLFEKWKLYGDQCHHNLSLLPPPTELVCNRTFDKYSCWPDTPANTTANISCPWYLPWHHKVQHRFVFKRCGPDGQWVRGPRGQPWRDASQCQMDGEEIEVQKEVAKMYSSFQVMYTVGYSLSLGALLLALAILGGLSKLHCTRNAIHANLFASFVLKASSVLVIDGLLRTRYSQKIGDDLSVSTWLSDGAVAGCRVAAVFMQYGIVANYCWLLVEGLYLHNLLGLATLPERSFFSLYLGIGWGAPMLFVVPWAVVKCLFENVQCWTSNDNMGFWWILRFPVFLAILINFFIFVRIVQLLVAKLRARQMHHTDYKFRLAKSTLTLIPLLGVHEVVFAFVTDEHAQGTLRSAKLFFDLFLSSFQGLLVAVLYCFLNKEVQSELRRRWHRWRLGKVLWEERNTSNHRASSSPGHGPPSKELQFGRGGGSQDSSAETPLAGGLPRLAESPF
Chain of DPP-IV (P27487 whole entry, species assumed): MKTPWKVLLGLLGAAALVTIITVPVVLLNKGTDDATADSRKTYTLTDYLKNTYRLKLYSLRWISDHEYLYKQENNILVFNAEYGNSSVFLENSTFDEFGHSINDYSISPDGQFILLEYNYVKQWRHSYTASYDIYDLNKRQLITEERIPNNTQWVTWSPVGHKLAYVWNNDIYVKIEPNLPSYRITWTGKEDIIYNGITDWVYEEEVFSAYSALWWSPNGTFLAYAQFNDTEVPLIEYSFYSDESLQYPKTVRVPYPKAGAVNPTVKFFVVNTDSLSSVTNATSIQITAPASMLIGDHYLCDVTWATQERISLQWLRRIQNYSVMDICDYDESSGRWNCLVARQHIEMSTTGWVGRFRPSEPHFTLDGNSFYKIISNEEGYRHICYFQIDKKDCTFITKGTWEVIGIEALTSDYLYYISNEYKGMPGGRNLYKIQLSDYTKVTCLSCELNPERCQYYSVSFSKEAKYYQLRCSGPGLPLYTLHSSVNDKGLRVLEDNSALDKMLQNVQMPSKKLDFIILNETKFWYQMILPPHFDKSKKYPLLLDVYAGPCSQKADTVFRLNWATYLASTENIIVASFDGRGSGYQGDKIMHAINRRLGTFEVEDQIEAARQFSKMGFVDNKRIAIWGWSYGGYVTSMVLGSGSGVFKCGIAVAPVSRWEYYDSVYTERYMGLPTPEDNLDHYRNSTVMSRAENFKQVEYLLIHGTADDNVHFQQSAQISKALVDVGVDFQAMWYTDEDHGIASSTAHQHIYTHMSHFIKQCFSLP

| SMILES | EC50 [3] [pM] | EC50 [4] [pM] | further results |
| --- | --- | --- | --- |
| CC(C)C[C@H](NC(=O)[C@H](Cc1ccc(O)cc1)NC(=O)[C@H](CCCCN)NC(=O)[C@H](CO)NC(=O)[C@H](Cc1ccc(O)cc1)NC(=O)[C@H](CC(=O)O)NC(=O)[C@H](CO)NC(=O)[C@@H](NC(=O)[C@H](Cc1ccccc1)NC(=O)[C@@H](NC(=O)CNC(=O)[C@H](CCC(N)=O)NC(=O)[C@H](CO)NC(=O)[C@@H](N)Cc1c[nH]cn1)[C@@H](C)O)[C@@H](C)O)C(=O)N[C@@H](CC(=O)O)C(=O)N[C@@H](CO)C(=O)N[C@@H](CCCCN)C(=O)N[C@@H](CCCCN)C(=O)N[C@@H](C)C(=O)N[C@@H](CCC(N)=O)C(=O)N[C@@H](CCC(=O)O)C(=O)N[C@@H](Cc1ccccc1)C(=O)N[C@H](C(=O)N[C@@H](CCCCNC(=O)COCCOCCNC(=O)COCCOCCNC(=O)CC[C@H](NC(=O)CCCCCCCCCCCCCCCCC(=O)O)C(=O)O)C(=O)N[C@@H](Cc1c[nH]c2ccccc12)C(=O)N[C@@H](CC(C)C)C(=O)N[C@@H](CC(C)C)C(=O)N[C@@H](CC(N)=O)C(=O)N[C@H](C(=O)O)[C@@H](C)O)C(C)C [Example 3] (H-HSQGTFTSDYSKYLDSKKAQEFVK([AEEA-AEEA-γGlu-C18 diacid])WLLNT-OH) | 19 | – | half-life ([1]; iv, 15 nmol/kg): ~8.6 h; half-life ([1]; sc, 30 nmol/kg): ~9.4 h; half-life at 10 μM [2]: 4.33 h |
| CC(C)C[C@H](NC(=O)[C@H](Cc1ccc(O)cc1)NC(=O)[C@H](CCCNC(=N)N)NC(=O)[C@H](CO)NC(=O)[C@H](Cc1ccc(O)cc1)NC(=O)[C@H](CC(=O)O)NC(=O)[C@H](CO)NC(=O)[C@@H](NC(=O)[C@H](Cc1ccccc1)NC(=O)[C@@H](NC(=O)CNC(=O)[C@H](CCC(N)=O)NC(=O)[C@H](CO)NC(=O)[C@@H](N)Cc1c[nH]cn1)[C@@H](C)O)[C@@H](C)O)C(=O)N[C@@H](CC(=O)O)C(=O)N[C@@H](CO)C(=O)N[C@@H](CCCNC(=N)N)C(=O)N[C@@H](CCCNC(=N)N)C(=O)N[C@@H](C)C(=O)N[C@@H](CCC(N)=O)C(=O)N[C@@H](CC(=O)O)C(=O)N[C@@H](Cc1ccccc1)C(=O)N[C@H](C(=O)N[C@@H](CCCCNC(=O)COCCOCCNC(=O)COCCOCCNC(=O)CC[C@H](NC(=O)CCCCCCCCCCCCCCCCC(=O)O)C(=O)O)C(=O)N[C@@H](Cc1c[nH]c2ccccc12)C(=O)N[C@@H](CC(C)C)C(=O)N[C@@H](CC(C)C)C(=O)N[C@@H](CC(N)=O)C(=O)N[C@H](C(=O)O)[C@@H](C)O)C(C)C [Example 20] (H-HSQGTFTSDYSRYLDSRRAQDFVK([AEEA-AEEA-γGlu-C18 diacid])WLLNT-OH; N-terminus and C-terminus assumed) | – | 109 | – |
| CC(C)C[C@H](NC(=O)[C@H](Cc1ccc(O)cc1)NC(=O)[C@H](CCCCN)NC(=O)[C@H](CO)NC(=O)[C@H](Cc1ccc(O)cc1)NC(=O)[C@H](CC(=O)O)NC(=O)[C@H](CO)NC(=O)[C@@H](NC(=O)[C@H](Cc1ccccc1)NC(=O)[C@@H](NC(=O)CNC(=O)[C@H](CCC(N)=O)NC(=O)[C@H](CO)NC(=O)[C@@H](N)Cc1c[nH]cn1)[C@@H](C)O)[C@@H](C)O)C(=O)N[C@@H](CC(=O)O)C(=O)N[C@@H](CO)C(=O)N[C@@H](CCCNC(=N)N)C(=O)N[C@@H](CCCNC(=N)N)C(=O)N[C@@H](C)C(=O)N[C@@H](CCC(N)=O)C(=O)N[C@@H](CCC(=O)O)C(=O)N[C@@H](Cc1ccccc1)C(=O)N[C@H](C(=O)N[C@@H](CCCCNC(=O)COCCOCCNC(=O)COCCOCCNC(=O)CC[C@H](NC(=O)CCCCCCCCCCCCCCCCC(=O)O)C(=O)O)C(=O)N[C@@H](Cc1c[nH]c2ccccc12)C(=O)N[C@@H](CC(C)C)C(=O)N[C@@H](CC(C)C)C(=O)N[C@@H](CC(N)=O)C(=O)N[C@H](C(=O)O)[C@@H](C)O)C(C)C [Example 21] | – | 21 | – |
| CC(C)C[C@H](NC(=O)[C@H](Cc1ccc(O)cc1)NC(=O)[C@H](CCCCN)NC(=O)[C@H](CO)NC(=O)[C@H](Cc1ccc(O)cc1)NC(=O)[C@H](CC(=O)O)NC(=O)[C@H](CO)NC(=O)[C@@H](NC(=O)[C@H](Cc1ccccc1)NC(=O)[C@@H](NC(=O)CNC(=O)[C@H](CCC(N)=O)NC(=O)[C@H](CO)NC(=O)[C@@H](N)Cc1c[nH]cn1)[C@@H](C)O)[C@@H](C)O)C(=O)N[C@@H](CC(=O)O)C(=O)N[C@@H](CO)C(=O)N[C@@H](CCCNC(=N)N)C(=O)N[C@@H](CCCNC(=N)N)C(=O)N[C@@H](C)C(=O)N[C@@H](CCC(N)=O)C(=O)N[C@@H](CC(=O)O)C(=O)N[C@@H](Cc1ccccc1)C(=O)N[C@H](C(=O)N[C@@H](CCCCNC(=O)CC[C@H](NC(=O)CC[C@H](NC(=O)CC[C@H](NC(=O)CCCCCCCCCCCCCCCCC(=O)O)C(=O)O)C(=O)O)C(=O)O)C(=O)N[C@@H](Cc1c[nH]c2ccccc12)C(=O)N[C@@H](CC(C)C)C(=O)N[C@@H](CC(C)C)C(=O)N[C@@H](CO)C(=O)N[C@H](C(=O)O)[C@@H](C)O)C(C)C [Example 71, N^ε24-[(4S)-4-carboxy-4-[[(4S)-4-carboxy-4-[[(4S)-4-carboxy-4-(17-carboxyheptadecanoylamino)butanoyl]amino]butanoyl]amino]butanoyl]-[Lys^24,Leu^27,Ser^28]-Glucagon] | 94 | – | Th T assay [Lag time] [5]: 45 h |
